Data on 15 compounds can be found in paper PMC6026185 (Scientific Reports, 2018).

“Also recorded” adds a separate entry of the source. Where two headings read alike, the source gives them in different places.

Data set [1] concerns NKCC2. The arrangement: method as in Schlatter et al.[23]. The settings on record: Rabbit kidney TAL; ref Schlatter et al.[23]; cited from earlier work.
Details of data set [2]: method as in DrugBank database. The settings on record: ref DrugBank database; cited from earlier work.
Details of data set [3]: method as in DrugBank database. The settings on record: ref DrugBank database; cited from earlier work. This is another data set of the same source.
In data set [4] the target is T1, hNKCC1B (Homo sapiens, UniProt P55011).
T1 construct: expressed in transfected cells; host or cells: Xenopus laevis oocytes injected with cRNA (pXOOM vector)
T1 sequence (P55011 1-1196 isoform P55011-3): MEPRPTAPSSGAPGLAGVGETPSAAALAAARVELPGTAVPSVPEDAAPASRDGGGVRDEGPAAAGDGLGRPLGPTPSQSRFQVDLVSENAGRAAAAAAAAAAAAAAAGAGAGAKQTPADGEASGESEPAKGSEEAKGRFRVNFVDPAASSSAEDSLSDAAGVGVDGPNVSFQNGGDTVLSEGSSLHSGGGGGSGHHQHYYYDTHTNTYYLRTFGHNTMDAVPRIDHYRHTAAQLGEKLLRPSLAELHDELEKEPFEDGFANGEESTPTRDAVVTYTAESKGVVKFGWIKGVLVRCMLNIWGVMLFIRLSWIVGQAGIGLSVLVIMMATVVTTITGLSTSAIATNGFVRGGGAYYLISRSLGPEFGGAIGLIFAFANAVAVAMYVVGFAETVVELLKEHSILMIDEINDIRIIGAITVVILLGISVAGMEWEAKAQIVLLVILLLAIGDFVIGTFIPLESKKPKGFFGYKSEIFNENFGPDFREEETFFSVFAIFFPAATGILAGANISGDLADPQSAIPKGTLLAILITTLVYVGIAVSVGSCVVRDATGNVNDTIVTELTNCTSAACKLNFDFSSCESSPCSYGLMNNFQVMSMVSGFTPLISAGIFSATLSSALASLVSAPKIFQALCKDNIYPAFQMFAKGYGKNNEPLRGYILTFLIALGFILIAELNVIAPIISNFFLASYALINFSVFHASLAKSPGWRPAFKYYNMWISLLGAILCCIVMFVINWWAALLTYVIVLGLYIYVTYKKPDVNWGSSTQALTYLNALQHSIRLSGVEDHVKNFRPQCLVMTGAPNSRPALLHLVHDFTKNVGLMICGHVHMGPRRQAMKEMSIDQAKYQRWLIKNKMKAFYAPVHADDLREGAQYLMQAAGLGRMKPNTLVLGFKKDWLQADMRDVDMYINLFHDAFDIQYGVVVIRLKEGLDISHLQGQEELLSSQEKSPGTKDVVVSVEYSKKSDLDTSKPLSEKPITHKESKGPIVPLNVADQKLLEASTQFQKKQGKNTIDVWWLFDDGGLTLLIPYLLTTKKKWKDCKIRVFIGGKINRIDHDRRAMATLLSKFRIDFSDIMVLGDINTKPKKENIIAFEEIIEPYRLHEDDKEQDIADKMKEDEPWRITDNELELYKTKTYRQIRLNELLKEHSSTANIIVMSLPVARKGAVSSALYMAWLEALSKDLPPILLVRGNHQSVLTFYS
The data set can be described thus: 86Rb+ uptake in hNKCC1B-expressing Xenopus laevis oocytes. It counts as cell-based. To be noted: 5 min, corrected for uninjected oocytes, median and range of 3–7 experiments.

Data set [5] addresses T2, hNKCC1A (Homo sapiens, UniProt P55011).
T2 construct: Full-length NKCC1 (NKCC1A) comprises ~1200 amino acids; expressed in transfected cells; host or cells: Xenopus laevis oocytes injected with cRNA (pXOOM vector)
T2 sequence (P55011 1-1212): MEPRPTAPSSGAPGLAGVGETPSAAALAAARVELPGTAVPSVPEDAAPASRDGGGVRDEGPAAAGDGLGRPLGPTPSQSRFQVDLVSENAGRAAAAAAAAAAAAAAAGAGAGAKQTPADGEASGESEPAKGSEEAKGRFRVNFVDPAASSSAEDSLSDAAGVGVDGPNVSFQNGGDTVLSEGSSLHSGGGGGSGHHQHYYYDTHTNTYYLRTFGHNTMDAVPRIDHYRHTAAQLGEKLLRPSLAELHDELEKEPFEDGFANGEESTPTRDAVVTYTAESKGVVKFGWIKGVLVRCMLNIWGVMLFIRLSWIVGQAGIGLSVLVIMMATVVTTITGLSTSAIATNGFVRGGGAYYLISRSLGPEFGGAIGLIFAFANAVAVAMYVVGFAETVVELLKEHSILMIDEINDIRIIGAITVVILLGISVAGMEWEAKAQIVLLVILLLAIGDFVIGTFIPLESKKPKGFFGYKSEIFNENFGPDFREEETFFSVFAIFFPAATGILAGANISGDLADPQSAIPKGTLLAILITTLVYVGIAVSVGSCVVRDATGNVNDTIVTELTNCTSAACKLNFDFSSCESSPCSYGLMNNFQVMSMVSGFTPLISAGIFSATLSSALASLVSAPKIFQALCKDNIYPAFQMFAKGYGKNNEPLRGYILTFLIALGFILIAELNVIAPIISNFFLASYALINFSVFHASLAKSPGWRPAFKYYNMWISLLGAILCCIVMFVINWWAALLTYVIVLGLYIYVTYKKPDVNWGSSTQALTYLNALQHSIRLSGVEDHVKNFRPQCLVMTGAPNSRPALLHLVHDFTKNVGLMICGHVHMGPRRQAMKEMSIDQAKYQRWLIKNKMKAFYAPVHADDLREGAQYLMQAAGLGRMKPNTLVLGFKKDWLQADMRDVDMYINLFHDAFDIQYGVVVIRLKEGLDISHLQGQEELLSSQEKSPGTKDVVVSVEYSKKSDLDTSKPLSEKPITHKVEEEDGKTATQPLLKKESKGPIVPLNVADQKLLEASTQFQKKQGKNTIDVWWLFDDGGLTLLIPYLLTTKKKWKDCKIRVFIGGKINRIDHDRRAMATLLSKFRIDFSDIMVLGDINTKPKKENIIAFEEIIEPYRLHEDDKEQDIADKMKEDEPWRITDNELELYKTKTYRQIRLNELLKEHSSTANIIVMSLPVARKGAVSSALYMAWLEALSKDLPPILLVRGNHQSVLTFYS
The data set can be described thus: 86Rb+ uptake in hNKCC1A-expressing Xenopus laevis oocytes. Format: cell-based. The settings on record: for IC50 / IC50 for hNKCC1A, IC50 (µM) (range): 86Rb+ uptake, Xenopus oocytes, 5 min, corrected for uninjected oocytes, median and range of 3–7 experiments; for Ratio hNKCC1A/ hNKCC1B: ratio of IC50s.

The conditions of data set [6]: rats, cited from earlier work.
Details of data set [7]: method as in ref [30] = [30]; 30. Reilly, R. F. & Jackson, E. K. Goodman & Gilman’s. The Pharmacological Basis of Therapeutics . 12th ed. Brunton, L. L., Chabner, B. A. & Knollmann, B. C. (eds), pp. 671–719 (McGraw-Hill, New York). The settings on record: ref [30]; cited from earlier work.
The conditions of data set [8]: in words, cited from earlier work.
Data set [9] relates to NKCC2. Also on record: method as in Greven[53]. The settings on record: Rat kidney TAL; ref Greven[53]; cited from earlier work.
Data set [10] has as its system NKCC2. The arrangement: method as in Wittner et al.[54]. The settings on record: Mouse and rabbit kidney TAL; ref Wittner et al.[54]; cited from earlier work.
Data set [11] has as its system NKCC1. To be noted: Activated state, isoforms not differentiated, turkey erythrocytes, chick cardiac cells, winter flounder intestine, ref Palfrey et al.[48], Frelin et al.[49], O’Grady et al.[50], cited from earlier work.
The test system of data set [12] is NKCC2. Also on record: method as in ref Palfrey et al.[48]; Schlatter et al.[23]; Frelin et al.[49]; O’Grady et al.[50]; Glanville et al.[51]; Hannaert et al.[52]. The settings on record: Rabbit kidney TAL; rat kidney TAL; NKCC2 isoforms not differentiated; ref Palfrey et al.[48]; Schlatter et al.[23]; Frelin et al.[49]; O’Grady et al.[50]; Glanville et al.[51]; Hannaert et al.[52]; cited from earlier work.

In data set [13] the test system is hNKCC2 isoform B. The settings on record: Xenopus oocytes; ref Gillen et al.[55]; Carota et al.[56]; read-out: IC50 (µM) NKCC2 (hB); cited from earlier work.
Data set [14] concerns hNKCC2 isoform A. The settings on record: Xenopus oocytes; ref Gillen et al.[55]; Carota et al.[56]; read-out: IC50 (µM) NKCC2 (hA); cited from earlier work.
Where [15] appears, read: mIMCD-K2 cells, rat erythrocytes and thymocytes, Schlatter et al.[23], Glanville et al.[51], Hannaert et al.[52].

Consider `CN1C(=O)C(N2CCCCC2)S/C1=C/C(=O)O` (stereo not drawn) [Ozolinon], for which the IC50 in [1] was 11 µM.
With `CN=C1SCC(O)(c2ccc(Cl)c(S(N)(=O)=O)c2)N1C` (stereo not drawn) [Tizolemide], the IC50 in data set [1] is over 100 µM.
For the compound `NS(=O)(=O)c1cc(-c2nnn[nH]2)c(NCc2cccs2)cc1Cl` [Azosemide], the pKa in [2] was 7.38. Also, in data set [3], the “Lipophilicity (logP)” value is reported as 2.38. In addition, the figures for the IC50 in [4], in data set [5] and in [9] were 0.197 µM, 0.246 µM and 3 µM, respectively. For the same compound, in [5], the “Ratio hNKCC1A/ hNKCC1B” value turned out to be 1.25. In addition, in data set [6] (30 min following i.v. 20 mg/kg, below detection limit, ref [32]), the brain levels was under 0.05 µg/g. Also, the “clinical diuretic potency relative to furosemide” value in data set [7] is “about the same diuretic potency as furosemide”. In data set [8] (ref [31]), the plasma protein binding entry is listed as “highly bound to plasma proteins”.
In the case of `NS(=O)(=O)c1cc(C(=O)NN2CC3C4CCC(C4)C3C2)ccc1Cl` (stereo not drawn) [Tripamide], the IC50 in data set [4] and in data set [5] was over 1000 µM in each case.
As for `Cc1cccc(C)c1NC(=O)c1cc(S(N)(=O)=O)c(Cl)cc1O` [Xipamide, 4-chloro-5-sulfamoyl-2′,6′-salicyloxylidide], in data set [4], the IC50 was over 1750 µM and the “IC50 for hNKCC1B, IC50 (µM) (range)” value is “did not inhibit; also recorded: inactive”. For the same compound, in [5], the IC50 was over 1750 µM and the “IC50 for hNKCC1A, IC50 (µM) (range)” value was “did not inhibit; also recorded: inactive”.
As to `Cc1cccc(Nc2ccncc2S(=O)(=O)NC(=O)NC(C)C)c1` [Torasemide], the values for the IC50 in data set [10], in [4] and in data set [5] were 0.3 µM, 8.19 µM and 6.18 µM, respectively. The “Ratio hNKCC1A/ hNKCC1B” value in data set [5] stood at 0.755. In addition, in data set [6] (30 min after i.v. 10 mg/kg, ref [34]), the “brain:plasma concentration ratio” value is on record as 0.00024. Also, the “clinical diuretic potency relative to furosemide” value in data set [7] was “about 3 times”. For the same compound, the plasma protein binding result in data set [8] (ref [33]) is on record as “highly bound to plasma proteins”.
For `NS(=O)(=O)c1cc(C(=O)O)cc(N2CCCC2)c1Oc1ccccc1` [Piretanide], the IC50 in data set [11] (setting [15]) is 0.5 to 3 µM; in data set [4] it was 1.66 µM; in data set [5], 3.35 µM; in data set [12], 1 to 1.1 µM. Also, the “Ratio hNKCC1A/ hNKCC1B” value in data set [5] came to 2.02.
Take `NS(=O)(=O)c1cc(C(=O)O)c(NCc2ccco2)cc1Cl` [Furosemide]: the IC50 in [13] is 7.2 µM; in [14] it was 15.1 µM; in [11] (setting [15]) it was 7 to 23 µM; in [12] it was 3 to 7.1 µM.
For the compound `NS(=O)(=O)c1cc(C(=O)O)cc(NCc2ccccc2)c1Oc1ccccc1` [Benzmetanide], in data set [11], the 50% inhibitory concentration (IC50) was 0.05 to 0.3 µM.
As to `O=C(O)COc1ccc(C(=O)c2cccs2)c(Cl)c1Cl` [Ticrynafen], the values for the IC50 in data set [1], in data set [4] and in data set [5] were 410 µM, 1780 µM and 489 µM, respectively. Further, the “Ratio hNKCC1A/ hNKCC1B” value in data set [5] was 0.275.
In the case of `CC(c1ccc(Cl)c(Cl)c1)N1N=C(N)CC1=O` (stereo not drawn) [Muzolimine], the IC50 in data set [1] was over 100 µM.
For the compound `CCOC(=O)/C=C1\SC(N2CCCCC2)C(=O)N1C` (stereo not drawn) [Etozolin], in [1], the IC50 is over 100 µM.
For the compound `CC1(c2ccccc2)Cc2cc(OCC(=O)O)c(Cl)c(Cl)c2C1=O` (stereo not drawn) [Indacrinone], the IC50 in data set [1] was 12 µM.
Turning to `C=C(CC)C(=O)c1ccc(OCC(=O)O)c(Cl)c1Cl` [Ethacrynic acid], the values for the IC50 in [1], in [4] and in [5] were 5.1 µM, 3070 µM and 1680 µM, respectively.
With `COc1ccc(Cl)cc1C(=O)NCCc1ccc(S(=O)(=O)NC(=O)NC2CCCCC2)cc1` [Glybenclamide, 5-chloro-N-(2-{4-[(cyclohexylcarbamoyl)sulfamoyl]phenyl}ethyl)-2-methoxybenzamide], the IC50 in data set [4] and in data set [5] was over 100 µM throughout. For the same compound, in [4] (listed as glibenclamide), the “IC50 for hNKCC1B, IC50 (µM) (range)” value was “did not inhibit; also recorded: inactive”. In addition, the “IC50 for hNKCC1A, IC50 (µM) (range)” value in [5] (listed as glibenclamide) is “did not inhibit; also recorded: inactive”.
